From US5840750A, “Discodermolide compounds” (priority 1996, dated 1998)
Where two headings read alike, the source gives them in different places.

What was measured:
BMSC 25.4 = experiment: Constitutive proliferation of murine non-lymphoid BMSC 25.4 cells; type: cell-based
Source text: (§1) ^d Bone marrow stromal cells (MBSC) derived from CS7BL/6 mice.

Normal Fibroblast = experiment: Constitutive proliferation of human non-lymphoid normal (foreskin) fibroblasts
Swiss 3TC = experiment: Constitutive proliferation of murine non-lymphoid Swiss 3TC cells; type: cell-based
Source text: (§7) The effects of discodermolide on the inhibition of constitutive proliferation of a number of lymphoid and non-lymphoid cell lines of mouse or human origin was investigated.

BMSC 8.6 = experiment: Constitutive proliferation of murine non-lymphoid BMSC 8.6 cells; type: cell-based
Source text: as §1

BMSC 8.3 = experiment: Constitutive proliferation of murine non-lymphoid BMSC 8.3 cells; type: cell-based
Source text: as §1

microtubules = settings: literature; cited from earlier work
[1] = system: MCF-7 cells and MDA-MB-231 cells; experiment: Growth of human breast carcinoma cells; type: cell-based; settings: Breast carcinoma cell, results similar for both lines (MCF-7, MDA-MB-231)
Method: (§2) The effect of discodermolide on two human breast carcinoma cell lines, estrogen receptor positive MCF-7 cells, and estrogen receptor negative MDA-MB-231 cells, was determined. The results were compared with those obtained by treatment with taxol. Both lines were examined for drug effects on growth and by indirect immunofluorescence for effects on the microtubule cytoskeleton. The results were similar for both lines. […] These patterns appeared at concentrations as low as 10 nm.

[2] = system: microtubule cytoskeleton in MCF-7 cells and MDA-MB-231 cells; experiment: Indirect immunofluorescence for effects on the microtubule cytoskeleton of human breast carcinoma cells; type: cell-based; settings: for minimal effective concentration: Homo sapiens, Breast carcinoma cell
Method: as §2

bovine brain tubulin = experiment: Tubulin polymerization monitored turbidimetrically; type: biochemical; settings: for temperature at which tubulin polymerization/assembly began: 10 μM tubulin, MAPs, GTP, control 37° C.; for stability of assembly upon return of the mixture to 0° C.: control disassembled
Method: (§3) Discodermolide was analyzed for its interactions with tubulin. Tubulin polymerization was monitored turbidimetrically at 350 nm with an electronic temperature controller. Reaction mixtures contained 0.1M 4-morpholine-ethanesulfonate (pH 6.9), 1.0 mg/ml (10 μM) electrophoretically-homogenous bovine brain tubulin freed of unbound nucleotide by gel filtration, 0.5 mg/ml heat-treated MAPs, 100 μM GTP, and 4% (v/v) dimethylsulfoxide. A concentration of 10 μM of discodermolide (curve 3) was compared with the same concentration of taxol (curve 2) and no drug (curve 1), as shown in FIG. 5.

cancers = settings: clinical trials; cited from earlier work
tubulin [3] = experiment: EC50 for the polymerization of tubulin; type: biochemical; settings: additional studies
Method: as §3

[4] = system: GI-101A human breast cells; experiment: Cell cycle analysis of GI-101A human breast cells; type: cell-based; settings: 24 hours; for effect on cell cycle progression: GI-101A; for percentage of cells in G2 /M / percentage of S phase cells / percentage of cells in G1 phase: discodermolide 100 ng/ml; for percentage of cells in G2 /M: control 14%; for percentage of S phase cells: control 30%; for percentage of cells in G1 phase: control 56%
Method: (§4) Cell cycle studies were initiated in order to pinpoint a specific phase within the cell cycle in which discodermolide was exerting its antiproliferative effect. GI-101A human breast and A549 human lung cells were used as cell cycle targets to compare the effects of discodermolide and taxol on perturbation of the cell cycle. Cell cycle analyses were performed as follows: GI-101A and A549 cells were incubated at 37° C. in 10% CO2 in air in the presence or absence of varying concentrations of discodermolide or taxol (purchased from Molecular Probes, Eugene, Oreg.) for 48 hours. Cells were harvested, fixed in ethanol, and stained with 0.5 mg/ml of propidium iodide (P.I.) together with 0.1 mg/ml of RNase A. This procedure permeabilizes live cells and allows entry of P.I. to stain DNA. Stained preparations were analyzed on a Coulter EPICS ELITE with 488 nm excitation with the dead cells excluded by back-gating of P.I. preparations without detergent on forward and side scatter histograms. Fluorescence measurements and resulting DNA histograms were collected from at least 5,000 P.I. stained cells at an emission wavelength of 690 nm. Raw histogram data were further analyzed using a cell cycle analysis program (Multicycle, Phoenix Flow Systems).
Approximately 56% of the control cells comprise the G1 phase of the cell cycle, and 30% comprise the S phase. Only approximately 14% of cells are demonstrable in the G2 /M phase in asynchronous cultures at any one time mainly due to their high proliferative rate (FIG. 2A). At 24 hours post culture initiation with 100 ng/ml of discodermolide, the percentage of cells in G1 phase decreased to 22%. […] The percentage of cells in G1 decreased from 56% in the control to 27% in taxol-treated cultures.

tubulin [5] = experiment: Electron micrographs of polymers of tubulin; type: biochemical; settings: compared with control
A549 human lung cells = experiment: Cell cycle analysis of A549 human lung cells; type: cell-based; settings: 48 hours; for percentage of S phase cells (in words): control 19%; for percentage of cells in G2 /M / percentage of cells in G1: discodermolide 100 ng/ml; for percentage of cells in G2 /M: control 4%; for percentage of cells in G1: control 77%
Method: as §4
Discodermolide and taxol were compared for their effects on the proliferation of A549 human lung cells. Cell cultures were similarly initiated in the presence and absence of various concentrations of discodermolide or taxol and incubated at 37° C. in 10% CO2 in air for 48 hours. Cells were harvested and stained and analyzed on the flow cytometer as outlined above.

[6] = system: Jurkat human leukemia cells; experiment: Cell cycle analysis of Jurkat human leukemia cells; type: cell-based; settings: 48 hours, discodermolide 100 ng/ml; for percentage of cells in G2 /M: control 7%; for percentage of S-phase cells: control 25%; for percentage of cells in G1: control 68%
Method: Discodermolide and taxol were compared for their effects on the proliferation of Jurkat human leukemia cells. Cell cultures were similarly initiated in the presence and absence of various concentrations of discodermolide or taxol and incubated at 37° C. in 10% CO2 in air for 48 hours. Cells were harvested and stained and analyzed on a flow cytometer using standard procedures. […] The percentage of S-phase cells in both groups increased from 25% in the control to 38% in both discodermolide- and taxol-treated cells.

SF 539 = experiment: NCI in vitro tumor cell line panel, LC50, CNS cancer; type: cell-based, human
Source text: (§5) Discodermolide was additionally evaluated for its anti-proliferative effects utilizing the National Cancer Institute's in vitro tumor cell line panel. The results of these analyses are shown in the mean graphs presented as FIGS. 1A-1K. The data are presented using known and accepted measurements of "Growth Inhibition-50" (GI50), where growth of 50% of the cells is inhibited; "Total Growth Inhibition" (TGI), where growth of all cells is inhibited, i.e., cytostasis; and "Lethal Concentration-50" (LC50), where 50% of the cells are killed.

SF 295 = experiment: as above; type: cell-based, human
Source text: as §5

EL-4 Thymoma = experiment: Constitutive proliferation of murine lymphoid EL-4 thymoma cells; type: cell-based; settings: Mus musculus; EL-4 Thymoma proliferation; best response
Source text: as §7

HCC-2998 = experiment: NCI in vitro tumor cell line panel, LC50, colon cancer; type: cell-based; settings: human colon cancer (HCC-2998)
Source text: as §5

COLO 205 = experiment: as above; type: cell-based; settings: human colon cancer (COLO 205)
Source text: as §5

M14 = experiment: NCI in vitro tumor cell line panel, LC50, melanoma; type: cell-based; settings: human melanoma (M14)
Source text: as §5

human tumor cell lines = experiment: National Cancer Institute's in vitro tumor cell line panel; type: cell-based
Source text: as §5

[7] = Constitutive proliferation of human non-lymphoid normal (foreskin) fibroblasts; settings: human, foreskin fibroblasts
70Z/3 Pre-B = experiment: Constitutive proliferation of murine lymphoid 70Z/3 Pre-B cells; type: cell-based; settings: Mus musculus; 70Z/3 Pre-B proliferation; best response
Source text: as §7

[8] = system: murine lymphoid and non-lymphoid cell lines; experiment: Constitutive proliferation of murine lymphoid and non-lymphoid cell lines (summary); type: cell-based; settings: Mus musculus, read-out: IC50 values, range over murine cell lines
Source text: as §7

NCI-H23 = experiment: NCI in vitro tumor cell line panel, LC50, non-small cell lung cancer; type: cell-based; settings: human non-small cell lung cancer (NCI-H23)
Source text: as §5

MDA-N = experiment: NCI in vitro tumor cell line panel, LC50, breast cancer; type: cell-based, human
Source text: as §5

MDA-MB-435 = experiment: as above; type: cell-based, human
Source text: as §5

F7 Fibroblast = experiment: Constitutive proliferation of murine non-lymphoid F7 fibroblasts; type: cell-based; settings: Mus musculus, best response
Source text: as §7

tubulin [9] = experiment: Assembly of tubulin without MAPs or GTP; type: biochemical
Method: as §3, with “[…],” for “0.5 mg/ml heat-treated MAPs, 100 μM GTP,”

A549 = A549 IC50 (biological activity of octahydrodiscodermolide compounds); type: cell-based, human
Method: (§6) The octahydrodiscodermolide compounds were tested for biological activity and the following results obtained: […]

P388 = P388 IC50 (biological activity of octahydrodiscodermolide compounds); type: cell-based
Method: as §6

## Cyclosporin A [reference compound]
BMSC 25.4; BMSC lines, up to 1 μg/ml
  inhibition (Cyclosporin A): no
Normal Fibroblast; human fibroblasts, up to 3 μM
  inhibition (Cyclosporin A): no
Swiss 3TC; 3T3, up to 1 μg/ml
  inhibition (Cyclosporin A): no
BMSC 8.6; BMSC lines, up to 1 μg/ml
  inhibition (Cyclosporin A): no
BMSC 8.3; BMSC lines, up to 1 μg/ml
  inhibition (Cyclosporin A): no

## CC(=O)O[C@H]1C(=O)[C@@]2(C)[C@H]([C@H](OC(=O)c3ccccc3)[C@]3(O)C[C@H](OC(=O)[C@H](O)[C@@H](NC(=O)c4ccccc4)c4ccccc4)C(C)=C1C3(C)C)[C@]1(OC(C)=O)CO[C@@H]1C[C@@H]2O [taxol, reference compound]
microtubules
  effect on microtubules: stabilizes microtubules and inhibits their depolymerization to free tubulin
[1]
  IC50: 2.1 nM
[2]; only at much higher drug concentrations, read-out: concentration at which immunofluorescence changes occurred
  minimal effective concentration: 1 µM
Bovine brain tubulin; 10 μM drug
  temperature at which tubulin polymerization/assembly began: 10 °C
  stability of assembly upon return of the mixture to 0° C.: modest decline
cancers
  clinical effect: effective in the treatment of a wide range of cancers
Tubulin [3]
  EC50: 23000 nM
[4]
  effect on cell cycle progression: block at G2 /M
  percentage of cells in G2 /M: 37%
  percentage of S phase cells: 37%
  percentage of cells in G1 phase: 27%
Tubulin [5]
  electron micrographs of polymers of tubulin: very similar characteristics, presence of polymers, microtubules, and sheets; however, the taxol-inducedpolymers were somewhat longer than those induced with discodermolide
A549 human lung cells
  percentage of S phase cells (in words): did not change significantly
  percentage of cells in G2 /M: 77%
  percentage of cells in G1: 11%
[6]
  percentage of cells in G2 /M: 28%
  percentage of S-phase cells: 38%
  percentage of cells in G1: 34%

## C=C/C=C\C(C)C(OC(N)=O)C(C)C(O)C(C)C/C(C)=C\C(C)C(O)C(C)/C=C\C(O)CC1OC(=O)C(C)C(O)C1C (single isomer, unassigned) [discodermolide]
SF 539
  LC50 (in words): particularly effective
SF 295
  LC50 (in words): particularly effective
BMSC 25.4; Mus musculus, BMSC 25.4 proliferation, best response
  IC50: 59 nM
EL-4 Thymoma
  IC50: 30 nM
[1]
  IC50: 2.4 nM
HCC-2998
  LC50 (in words): particularly effective
COLO 205
  LC50 (in words): particularly effective
[2]; read-out: concentration at which immunofluorescence patterns appeared
  minimal effective concentration: 0.01 µM
[2]; cellular microtubules
  Immunofluorescence patterns: remarkable rearrangement of cellular microtubules
M14
  LC50 (in words): particularly effective
Bovine brain tubulin; 10 μM drug, 0° C.
  extent of tubulin polymerization at 0° C.: almost complete
Bovine brain tubulin; 10 μM drug
  temperature at which tubulin polymerization/assembly began: 0 °C
  stability of assembly upon return of the mixture to 0° C.: remained stable
Bovine brain tubulin; compared to taxol
  mechanism of action in regard to stabilization of microtubules: superior to that of taxol
Human tumor cell lines; approximately 60 cell lines tested, GI50
  selective cytotoxicity, number of cell lines for GI50: 32 cell lines
Human tumor cell lines; approximately 60 cell lines tested, TGI
  selective cytotoxicity, number of cell lines for TGI: 18 cell lines
Human tumor cell lines; statistical analysis of selective toxicity pattern
  cytotoxicity pattern (COMPARE algorithm): matched that of several previously tested microtubule interactive agents, including the pattern generated by taxol
Normal Fibroblast; Homo sapiens, Fibroblast
  IC50: 15 nM
Normal Fibroblast; human foreskin fibroblast, concentrations up to 3.0 μM
  viable cell recovery (toxicity): not affected
[7]
  CC50: > 3000 nM
70Z/3 Pre-B
  IC50: 3 nM
Tubulin [3]
  EC50: 2700 nM
Swiss 3TC; Mus musculus, Swiss 3TC proliferation, best response
  IC50: 37 nM
[8]
  IC50: 3 to 60 nM
[4]
  effect on cell cycle progression: block at G2 /M phase of the cell cycle
  percentage of cells in G2 /M: 38%
  percentage of S phase cells: 41%
  percentage of cells in G1 phase: 22%
Tubulin [5]
  electron micrographs of polymers of tubulin: very similar characteristics, presence of polymers, microtubules, and sheets
BMSC 8.6; Mus musculus, BMSC 8.6 proliferation, best response
  IC50: 84 nM
NCI-H23
  LC50 (in words): particularly effective
A549 human lung cells
  percentage of S phase cells (in words): did not change significantly
  percentage of cells in G2 /M: 67%
  percentage of cells in G1: 18%
MDA-N
  LC50 (in words): particularly effective
MDA-MB-435
  LC50 (in words): particularly effective
BMSC 8.3; Mus musculus, BMSC 8.3 proliferation, best response
  IC50: 50 nM
[6]
  percentage of cells in G2 /M: 27%
  percentage of S-phase cells: 38%
  percentage of cells in G1: 35%
F7 Fibroblast
  IC50: 60 nM
Tubulin [9]
  assembly of tubulin without MAPs or GTP: induced the assembly of tubulin
Tubulin [9]; especially at low temperatures
  assembly reactions compared to taxol: more dramatic compared to those observed with taxol

## octahydrodiscodermolide [20SG724]
A549
  IC50: > 5 µg/mL
P388
  IC50: 3.56 µg/mL

## octahydrodiscodermolide [20SG721]
A549
  IC50: 0.008 µg/mL
P388
  IC50: 0.02 µg/mL
